Tests used:
[1] = system: LTB4 receptor; assay: TXB2 release from guinea pig eosinophils stimulated with LTB4 (LTB4 receptor antagonist activity); format: cell-based; settings: 10^−3 M test compound (37.5 μl) added to 300 μl cell suspension, then 10^−7 M LTB4 (37.5 μl), 37° C. 15 min, positive control 100, negative control 0, N.D. = TXB2 concentration at measurement limit or less
Method: The LTB4 receptor antagonist activity of the test compound was examined using, as an index, thromboxane B2 (TXB2) released when stimulating eosinophil of guinea pig with LTB4.
Based on the method described in Japanese Journal of Pharmacology, vol. 70, p. 337-345 (1996) etc., eosinophils of guinea pig were prepared. A cell suspension (300 μl, 1.25×10^6 cells/ml) was placed in a 5 ml polypropylene test tube and, after incubation at 37° C. for 5 min., 10^−3 M test compound (37.5 μl) dissolved in 0.1% DMSO aqueous solution was added and the cells were continuously cultured for 5 min. Then, 10^−7 M LTB4 (37.5 μl) was added to induce the reaction and the cells were incubated at 37° C. for 15 min. The reaction was quenched in ice water, and the culture was centrifuged at 4° C., 3000 rpm for 10 min. The obtained supernatant was prepared as a sample for TXB2 measurement, and preserved at −80° C. before use for the measurement. The quantitation of TXB2 was performed using a TXB2 enzyme immunoassay kit (manufactured by Cayman Chemical Company). The release ratio (%) of TXB2 from the eosinophils was determined by the following formula: release ratio (%) of TXB2=[(average value of test compound administration group−average value of negative control group)/(average value of positive control group−average value of negative control group)]×100
As used herein, the positive control group means a group to which stimulation with LTB4 was applied but the same volume of a medium was given instead of the test compound, and the negative control group means a group to which stimulation with LTB4 was not applied, the same volume of a medium was given instead of LTB4, and the same volume of a medium was given instead of the test compound. When the release ratio of TXB2 is smaller than 0, it means that the measured TXB2 concentration was lower than that of the negative control group. When the TXB2 concentration in the sample was the measurement limit or less, N.D. is indicated.

melting point	SMILES	Amount of TXB2 release (%) [1]
142 to 144.5 °C	COc1ccc2c(NC(=O)/C=C/c3ccccc3)c(C(C)=O)oc2c1 [Example 120, (E)-N-(2-acetyl-6-methoxybenzofuran-3-yl)-3-phenylacrylamide]	1.32%
161.3 to 162.1 °C	COc1ccc(CCNC(=O)/C=C/C=C(\Cl)c2cc3cc(Br)ccc3o2)cc1OC [Example 55, (2E,4Z)-5-(5-bromobenzofuran-2-yl)-5-chloropenta-2,4-dienoic acid [2-(3,4-dimethoxyphenyl)ethyl]amide]	53.91%
141.3 to 141.5 °C	CCOC(=O)CCCOc1cccc2cc(/C(C)=C/C(=O)Nc3ccc(OC)cc3)oc12 [Example 28, Ethyl (E)-4-{2-[2-(4-methoxyphenylcarbamoyl)-1-methylvinyl]benzofuran-7-yloxy}butyrate]	−0.23%
152 to 160 °C	CC(=O)c1cc2c(/C(C)=C/C(=O)N3CCN(c4ccccc4)CC3)ccc(OC(c3ccccc3)c3ccccc3)c2o1 [Example 6, (E)-3-(2-acetyl-7-benzhydryloxybenzofuran-4-yl)-1-(4-phenylpiperazin-1-yl)-2-buten-1-one]	38.93%
173.9 to 175.4 °C	CC(=O)c1cc2c(/C(C)=C/C(=O)N3CCOCC3)ccc(OC(C)c3ccccc3)c2o1 (stereo not drawn) [Example 9, (E)-3-[2-acetyl-7-(1-phenylethoxy)benzofuran-4-yl]-1-morpholino-2-buten-1-one]	0.68%
169.3 to 171 °C	CCN(CC)C(=O)/C=C(\C)c1ccc2oc(C(C)=O)c(NC(=O)/C(C#N)=C(/C)O)c2c1 [Example 94, N-{2-acetyl-5-[(E)-2-diethylcarbamoyl-1-methylvinyl]benzofuran-3-yl}-2-cyano-3-hydroxy-(Z)-2-butenamide]	−0.1%
194.3 to 197.3 °C	COc1cccc(NC(=O)/C=C/C=C(\Cl)c2cc3cccc(OC)c3o2)c1 [Example 57, (2E,4Z)-5-chloro-5-(7-methoxybenzofuran-2-yl)penta-2,4-dienoic acid (3-methoxyphenyl)amide]	78.01%
168 to 173 °C	COc1ccc(CCNC(=O)/C=C(\C)c2ccc3oc(C(C)=O)c(N)c3c2)cc1OC [Example 17, (E)-3-(2-acetyl-3-aminobenzofuran-5-yl)-N-[2-(3,4-dimethoxyphenyl)ethyl]-2-butenamide]	27.92%
196 to 202.1 °C	CC(=O)c1cc2c(/C(C)=C/C(=O)N3CCN(Cc4ccccc4)CC3)ccc(OC(C)c3ccccc3)c2o1 (stereo not drawn) [Example 10, (E)-3-[2-acetyl-7-(1-phenylethoxy)benzofuran-4-yl]-1-(4-benzylpiperazin-1-yl)-2-buten-1-one]	23.43%
201.5 to 204.4 °C	CC(=O)c1oc2ccc(/C(C)=C/C(=O)N3CCN(c4ccccc4)CC3)cc2c1NC(=O)c1cnoc1C [Example 75, (E)-N-{2-acetyl-5-[1-methyl-3-oxo-3-(4-phenylpiperazin-1-yl)-1-propenyl]benzofuran-3-yl}-5-methylisoxazole-4-carboxamide]	27.03%
143.2 to 145.6 °C	C/C=C/C(=O)Nc1c(C(=O)OCC)oc2ccccc12 [Example 118, Ethyl (E)-3-methyl-acryloylaminobenzofurane-2-carboxylate]	73.84%
197.8 to 200.2 °C	O=C(/C=C/c1ccccc1)Nc1c(C(=O)O)oc2ccccc12 [Example 121, (E)-3-(3-phenylacryloylamino)benzofurane-2-carboxylic acid]	5.77%
154.5 to 156.5 °C	COc1cccc2cc(C(C)NC(=O)/C=C/c3ccccc3)oc12 (stereo not drawn) [Example 132, (E)-N-[1-(7-methoxybenzofuran-2-yl)ethyl]-3-phenylacrylamide]	14.05%
204.3 to 207.1 °C	COc1cccc(NC(=O)/C=C/C=C(\Cl)c2cc3cc(Br)ccc3o2)c1 [Example 54, (2E,4Z)-5-(5-bromobenzofuran-2-yl)-5-chloropenta-2,4-dienoic acid (3-methoxyphenyl)amide]	60.6%
144 to 148.3 °C	CC(=O)c1oc2ccc(/C(C)=C/C(=O)N3CCN(Cc4ccccc4)CC3)cc2c1N [Example 19, (E)-3-(2-acetyl-3-aminobenzofuran-5-yl)-1-(4-benzylpiperazin-1-yl)-2-buten-1-one]	48.63%
96.2 to 98.5 °C	CCOC(=O)CCCOc1cccc2cc(/C(C)=C/C(=O)NCC(=O)OCC)oc12 [Example 40, Ethyl (E)-4-{2-[2-(ethoxycarbonylmethylcarbamoyl)-1-methylvinyl]benzofuran-7-yloxy}butyrate]	−0.18%
146.1 to 150 °C	COc1cccc(NC(=O)/C=C(/C)c2cc3c(S(=O)(=O)NCCc4ccc(OC)c(OC)c4)ccc(OCCCCl)c3o2)c1 [Example 52, (Z)-3-{7-(3-chloropropoxy)-4-[2-(3,4-dimethoxyphenyl)ethylsulfamoyl]benzofuran-2-yl}-N-(3-methoxyphenyl)-2-butenamide]	60.6%
142 to 144 °C	CCN(CC)C(=O)/C=C(\C)c1ccc(OCC(=O)c2ccc3c(c2)OCO3)c2oc(C(C)=O)cc12 [Example 13, (E)-3-[2-acetyl-7-(2-benzo[1,3]dioxol-5-yloxoethoxy)benzofuran-4-yl]-N,N-diethyl-2-butenamide]	31.8%
167 to 169.3 °C	CC(=O)c1cc2c(/C(C)=C/C(=O)N3CCOCC3)ccc(OC(c3ccccc3)c3ccccc3)c2o1 [Example 7, (E)-3-(2-acetyl-7-benzhydryloxybenzofuran-4-yl)-1-morpholino-2-buten-1-one]	9.89%
128.7 to 130.2 °C	C/C=C/C(=O)NC(C)c1cc2cccc(OC)c2o1 (stereo not drawn) [Example 130, (E)-[1-(7-methoxybenzofuran-2-yl)ethyl]-2-butenamide]	35.44%
167.2 to 168.2 °C	COc1cccc(NC(=O)/C=C(\C)c2cc3cccc(OC(c4ccccc4)c4ccccc4)c3o2)c1 [Example 38, (E)-3-(7-benzhydryloxybenzofuran-2-yl)-N-(3-methoxyphenyl)-2-butenamide]	91.73%
186.3 to 187.2 °C	CCOC(=O)c1oc2ccc(Br)cc2c1NC(=O)/C(C#N)=C(/C)O [Example 97, Ethyl (Z)-5-bromo-3-(2-cyano-3-hydroxy-2-butenoylamino)benzofurane-2-carboxylate]	−0.12%
162.2 to 164.5 °C	COc1cccc(NC(=O)/C=C(\C)c2cc3c(S(=O)(=O)NCCc4ccc(OC)c(OC)c4)ccc(OCCCCl)c3o2)c1 [Example 51, (E)-3-{7-(3-chloropropoxy)-4-[2-(3,4-dimethoxyphenyl)ethylsulfamoyl]benzofuran-2-yl}-N-(3-methoxyphenyl)-2-butenamide]	38.93%
79 to 84.6 °C	CC(=O)c1cc2c(/C(C)=C/C(=O)N3CCN(c4ccccc4)CC3)ccc(OC(C)c3ccccc3)c2o1 (stereo not drawn) [Example 5, (E)-3-[2-acetyl-7-(1-phenylethoxy)benzofuran-4-yl]-1-(4-phenylpiperazin-1-yl)-2-buten-1-one]	81.6%
125.5 to 127 °C	CCN(CC)C(=O)/C=C(\C)c1cc2c(Br)ccc(OCCCC(=O)O)c2o1 [Example 36, (E)-4-[4-bromo-2-(2-diethylcarbamoyl-1-methylvinyl)benzofuran-7-yloxy]butyric acid]	−0.301%
70.8 to 73 °C	CCN(CC)C(=O)/C=C(\C)c1ccc(OC(C)c2ccccc2)c2oc(C(C)=O)cc12 (stereo not drawn) [Example 1, (E)-3-[2-acetyl-7-(1-phenylethoxy)benzofuran-4-yl]-N,N-diethyl-2-butenamide]	0.42%
121.8 to 122.3 °C	CCN(CC)C(=O)/C=C(\C)c1ccc2oc(C(C)=O)c(NC(=O)Cc3ccc(OC)cc3)c2c1 [Example 21, (E)-3-{2-acetyl-3-[2-(4-methoxyphenyl)acetylamino]-benzofuran-5-yl}-N,N-diethyl-2-butenamide]	56.57%

Source: patent US7638540B2, “Benzofuran compound and medicinal composition containing the same” (The New Industry Research Organization, priority 2003, dated 2009)
